Data on 54 compounds can be found in patent US20220339260A1, “METHOD FOR PRODUCING INSULIN-PRODUCING CELL USING DIHYDROINDOLIZINONE DERIVATIVES” (TOKYO INSTITUTE OF TECHNOLOGY, priority 2019, published 2022).

This assay deals with human iPS cell Toe strain. The assay can be described thus: Effect to promote differentiation from human iPS cells into insulin-producing cells (insulin-positive cell rate, Reference Example 1). The assay is classed as cell-based. On the set-up: key to Activity: the sum of activity values at the two concentrations was obviously higher than the control untreated with compounds while being lower than the positive control was expressed as +; the sum was equivalent to the positive control was expressed as ++; the sum was higher than the positive control was expressed as +++. The settings on record: activity intensity: sum of activity values (increment in insulin-positive cell rate) at 2 μM and 10 μM compared with positive control (compound of Synthesis Example 1). The source says: The evaluation system of the effect (efficacy) to promote differentiation from human iPS cells into insulin-producing cells was constructed with reference to known information (Non Patent Document 6). Further, the medium used in each differentiation stage was also produced with reference to known information (differentiation media A to E (Media A to E) described in Non Patent Document 6 were used respectively for stages 1 to 5; however, a medium free from GLP-1 receptor agonist and nicotinamide was used as differentiation medium E).
In order to evaluate the efficacy of each compound, the compound of Synthesis Example 1 was used as a positive control, and dimethylsulfoxide (DMSO) (SIGMA, D2650) with a final concentration of 0.1% was used as a control untreated with compounds. Each compound was dissolved in DMSO, and two types of compound solutions were prepared so as to have final concentrations of 2 μM and 10 μM after the compound was added to the medium. In the following evaluation, the compound solutions were added to the medium to 0.1% that is the final concentration of DMSO.
First, induction from human iPS cell Toe strain (National Institutes of Biomedical Innovation, Health and Nutrition) into cells on day 7 of culture (2 days after replacement with differentiation medium C (cells in the differentiation process from FOXA2-positive primitive gut tube cells into PDX1-positive pancreatic progenitor cells)) was performed according to the method of Non Patent Document 6 for “inducing differentiation from human iPS cells into pancreatic β cells”, and the cells were collected and thereafter stored in liquid nitrogen using Bambanker (NIPPON Genetics Co, Ltd.) at 1×10^7 cells/mL/tube, to produce a cell stock for evaluation. The cell stock was dissolved at the start of the evaluation of efficacy, suspended in differentiation medium C for stage 3 (DMEM high glucose (Life technologies, 11965092), 0.25 μM SANT-1, 0.1 μM LDN193189 (Stemgent, 04-0074), 10 μM SB431542, 2 μM Retinoic acid (Stemgent, 04-0021), 1% B27 serum free supplement (Life technologies, 17504044) and thereafter seeded in a 96-well plate (Corning, #3340) coated with Synthemax II (Corning, #5656) at 1×10^5 cells/well. After culturing for 2 days, the medium was removed, and new differentiation medium C for stage 3 with the compound or only DMSO added was added thereto at 100 μL/well. After culturing for 2 days, the medium was removed, and new differentiation medium D for stage 4 (DMEM high glucose, 0.1 μM LDN193189, 5 μM TGF-β type I receptor kinase inhibitor II (Calbiochem 616452), 0.3 μM (−)-indolactam V (Enzo life science ALX-420-011-C300), 1% B27 serum free supplement) with the compound or only DMSO added was added thereto at 100 μL/well. After culturing for 2 to 3 days, the medium was removed, and new differentiation medium E for stage 5 (GLP-1 receptor agonist and nicotinamide-free; Knockout […] (Life technologies, 12660012), 1% B27 serum free supplement) with the compound or only DMSO added was added thereto at 200 μL/well. After culturing for 2 days, the medium was removed, and a 4% paraformaldehyde phosphorus acid buffer (Wako, 163-20145) was added thereto at 150 μL/well and left standing for 30 to 60 minutes at room temperature to fix the cells. A phosphorus acid buffer (PBS) (Takara, T9181) containing 1% Triton X-100 (Sigma, T8787) was left standing for 15 minutes at room temperature, then washed with PBS-T (Takara, T9183), and was blocked for 1 hour using 20% Blocking One (Nacalai tesque, Tokyo, Japan) diluted with PBS-T at room temperature. After the removal of Blocking One, guinea pig anti-insulin antibody (Abcam, ab7842) diluted 200-fold with 20% Blocking One was added thereto at 50 μL/well, followed by standing at 4° C. overnight. […]
Consider `NC(=O)c1ccc(-c2cnc(NC(=O)C3CCC(=O)c4cccn43)s2)cc1` (stereo not drawn) [Example 6], for which the Activity entry is “+”. As to `CC(C)C(=O)N1CC=C(c2cnc(NC(=O)C3CCC(=O)c4cccn43)s2)CC1` (stereo not drawn) [Example 97], the Activity entry was “++”. As for `O=C1CCC(C(=O)Nc2ncc(-c3cccc(F)c3)s2)n2cccc21` (stereo not drawn) [Example 15], the Activity result is listed as “+”.

Turning to `O=C1CCC(C(=O)Nc2ccc(-c3ccc(OC(F)(F)F)cc3)cc2)n2cccc21` (stereo not drawn) [Example 73], the Activity result is listed as “+”. As to `Cc1cccc(-c2cnc(NC(=O)C3CCC(=O)c4cccn43)s2)c1` (stereo not drawn) [Example 20], the Activity result is given as “++”. Turning to `Cc1cc(OC(F)(F)F)ccc1-c1cnc(NC(=O)C2CCC(=O)c3cccn32)s1` (stereo not drawn) [Example 28], the Activity entry was “+++”. In the case of `CC(C)COc1ncc(-c2cnc(NC(=O)C3CCC(=O)c4cccn43)s2)cc1Cl` (stereo not drawn) [Example 52], the Activity result was “+++”. Regarding `CC(C)(C)OC(=O)N1CC=C(c2cnc(NC(=O)C3CCC(=O)c4cccn43)s2)CC1` (stereo not drawn) [Example 51], the Activity result is “+++”.

Take `Cc1cc(-c2sc(NC(=O)C3CCC(=O)c4cccn43)nc2C)ccc1OC(F)(F)F` (stereo not drawn) [Example 89]: the Activity result is “+++”. Consider `O=C1CCC(C(=O)Nc2ncc(-c3ccc4c(c3)OC(F)(F)O4)s2)n2cccc21` (stereo not drawn) [Example 40], for which the Activity result was “+++”. `O=C1CCC(C(=O)Nc2ncc(-c3ccc(OCc4ccccc4)cc3)s2)n2cccc21` (stereo not drawn) [Example 32]: the Activity entry is recorded as “+++”. Regarding `O=C1CCC(C(=O)Nc2ncc(-c3ccc(OC(F)(F)F)c(Cl)c3)s2)n2cccc21` (stereo not drawn) [Example 30], the Activity entry is listed as “+++”. In the case of `O=C1CCC(C(=O)Nc2ncc(-c3ccc(OCc4ccccc4)c(F)c3)s2)n2cccc21` (stereo not drawn) [Example 43], the Activity entry is given as “+++”. As to `COC(=O)c1ccc(-c2cnc(NC(=O)C3CCC(=O)c4cccn43)s2)cc1` (stereo not drawn) [Example 2], the Activity entry is listed as “++”.

In the case of `CN(C)C(=O)COc1ccc(-c2cnc(NC(=O)C3CCC(=O)c4cccn43)s2)cc1` (stereo not drawn) [Example 8], the Activity entry is given as “++”. Regarding `O=C1CCC(C(=O)Nc2ncc(-c3ccc(CO)cc3)s2)n2cccc21` (stereo not drawn) [Example 37], the Activity result is reported as “+”. Consider `O=C1CCC(C(=O)Nc2ncc(-c3ccc(Cl)cc3)s2)n2cccc21` (stereo not drawn) [Example 12], for which the Activity entry was “++”. Consider `O=C1CCC(C(=O)Nc2nc3ccc(-c4ccc(OC(F)F)cc4)cc3s2)n2cccc21` (stereo not drawn) [Example 60], for which the Activity entry was “++”. As for `O=C(c1ccccc1)c1ccc(-c2cnc(NC(=O)C3CCC(=O)c4cccn43)s2)cc1` (stereo not drawn) [Example 95], the Activity entry is on record as “+++”.

With `O=C1CCC(C(=O)Nc2ncc(-c3ccc4ccccc4c3)s2)n2cccc21` (stereo not drawn) [Example 24], the Activity entry is listed as “+”.

Consider `O=C1CCC(C(=O)Nc2ncc(-c3ccc(OCC(F)(F)F)cc3)s2)n2cccc21` (stereo not drawn) [Example 45], for which the Activity result is listed as “+++”. As to `Cc1nc(NC(=O)C2CCC(=O)c3cccn32)sc1-c1ccccc1` (stereo not drawn) [Example 34], the Activity result is “++”. For the compound `O=C1CCC(C(=O)Nc2ncc(-c3ccc(Cl)s3)s2)n2cccc21` (stereo not drawn) [Example 56], the Activity entry was “++”. With `COc1ccc(-c2cnc(NC(=O)C3CCC(=O)c4cccn43)s2)cc1` (stereo not drawn) [Example 26], the Activity result is on record as “++”. In the case of `Cc1nc(NC(=O)C2CCC(=O)c3cccn32)sc1-c1cnc(OCC(C)C)c(Cl)c1` (stereo not drawn) [Example 87], the Activity entry is “+++”. Take `CC1(C(=O)Nc2ncc(-c3ccc(OC(F)(F)F)cc3)s2)CCC(=O)c2cccn21` (stereo not drawn) [Example 65]: the Activity entry was “+++”.

`O=C1CCC(C(=O)Nc2ncc(-c3ccc(OCc4ccccc4)cc3F)s2)n2cccc21` (stereo not drawn) [Example 44]: the Activity entry was “+”. In the case of `O=C1CCC(C(=O)Nc2ccc(-c3ccc(OC(F)(F)F)c(Cl)c3)cc2)n2cccc21` (stereo not drawn) [Example 76], the Activity entry was “+”. To `Cc1cc2n(c1)C(C(=O)Nc1ncc(-c3ccc(OC(F)(F)F)cc3)s1)CCC2=O` (stereo not drawn) [Example 62] belongs “+++”. To `N#Cc1ccc(-c2cnc(NC(=O)C3CCC(=O)c4cccn43)s2)cc1` (stereo not drawn) [Example 7] belongs “+”; to `O=C1CCC(C(=O)Nc2nc3ccc(-c4ccc(OC(F)(F)F)cc4)cc3s2)n2cccc21` (stereo not drawn) [Example 59], “+++”; to `O=C1CCC(C(=O)Nc2ncc(-c3ccc(OC(F)(F)F)c(CO)c3)s2)n2cccc21` (stereo not drawn) [Example 31], “+”. For the compound `Cc1ccc(-c2cnc(NC(=O)C3(C)CCC(=O)c4cccn43)s2)cc1` (stereo not drawn) [Example 66], the Activity entry is listed as “++”.

For `O=C1CCC(C(=O)Nc2ncc(-c3ccc(OC(F)F)cc3)s2)n2cccc21` (stereo not drawn) [Example 39], the Activity entry was “+++”. Regarding `CC(C)(C)OC(=O)N1CC=C(c2cnc(NC(=O)C3CCC(=O)c4cccn43)s2)C1` (stereo not drawn) [Example 53], the Activity entry is reported as “++”. For `Cc1nc(C)c(-c2cnc(NC(=O)C3CCC(=O)c4cccn43)s2)s1` (stereo not drawn) [Example 55], the Activity result is “+”. With `O=C(O)c1ccc(-c2cnc(NC(=O)C3CCC(=O)c4cccn43)s2)cc1` (stereo not drawn) [Example 5], the Activity result is given as “+”. In the case of `Cc1nc(NC(=O)C2CCC(=O)c3cccn32)sc1-c1ccc(OCC(F)(F)F)cc1` (stereo not drawn) [Example 88], the Activity entry is listed as “+++”.

As for `O=C1CCC(C(=O)Nc2nc3ccc(-c4ccc5c(c4)OC(F)(F)O5)cc3s2)n2cccc21` (stereo not drawn) [Example 61], the Activity result was “+”. Take `Cc1cc(-c2cnc(NC(=O)C3(C)CCC(=O)c4cccn43)s2)ccc1OC(F)(F)F` (stereo not drawn) [Example 70]: the Activity result was “++”. For `O=C1CCC(C(=O)Nc2ncc(-c3ccc(Br)cc3)s2)n2cccc21` (stereo not drawn) [Example 47], the Activity result is recorded as “++”. For the compound `O=C1CCC(C(=O)Nc2ncc(-c3ccc4c(c3)OCO4)s2)n2cccc21` (stereo not drawn) [Example 4], the Activity result was “++”. Consider `CC(C)(C)Oc1ccc(-c2ccc(NC(=O)C3CCC(=O)c4cccn43)c(F)c2)cc1` (stereo not drawn) [Example 80], for which the Activity result is listed as “+”. With `Cc1ccccc1-c1cnc(NC(=O)C2CCC(=O)c3cccn32)s1` (stereo not drawn) [Example 19], the Activity entry was “++”. Take `CC(C)Oc1ccc(-c2cnc(NC(=O)C3CCC(=O)c4cccn43)s2)cc1` (stereo not drawn) [Example 33]: the Activity entry is given as “+++”. For `O=C1CCC(C(=O)Nc2ncc(-c3ccc(C(F)(F)F)cc3)s2)n2cccc21` (stereo not drawn) [Example 21], the Activity result is listed as “+++”. Consider `COc1ccccc1-c1ccc(-c2cnc(NC(=O)C3CCC(=O)c4cccn43)s2)cc1` (stereo not drawn) [Example 22], for which the Activity result was “+++”. To `CC(C)(C)OC(=O)Oc1ccc(-c2cnc(NC(=O)C3CCC(=O)c4cccn43)s2)cc1` (stereo not drawn) [Example 48] belongs “+”; to `Cc1nc(NC(=O)C2CCC(=O)c3cccn32)sc1-c1ccc(OC(C)(C)C)cc1` (stereo not drawn) [Example 35], “+++”. As for `O=C1CCC(C(=O)Nc2ncc(-c3ccccc3Cl)s2)n2cccc21` (stereo not drawn) [Example 14], the Activity entry is recorded as “+”. Next, `COc1cccc(-c2cnc(NC(=O)C3CCC(=O)c4cccn43)s2)c1` (stereo not drawn) [Example 27]: “++”; `Cc1nc(NC(=O)C2CCC(=O)c3cccn32)sc1-c1ccc2c(c1)OC(F)(F)O2` (stereo not drawn) [Example 84]: “+++”. Regarding `O=C1CCC(C(=O)Nc2ccc3nc(-c4ccc(OC(F)(F)F)cc4)sc3c2)n2cccc21` (stereo not drawn) [Example 83], the Activity result is listed as “+”. Regarding `CC1(C(=O)Nc2ncc(-c3ccc(OC(F)(F)F)c(Cl)c3)s2)CCC(=O)c2cccn21` (stereo not drawn) [Example 71], the Activity result is “+++”.
